Experiments:
[1] = Half life in human liver S9 fraction by UPLC-UV-PAD method in presence of NADPH; format: ADME, subcellular
[2] = Half life in rat liver S9 fraction by UPLC-UV-PAD method in presence of NADPH; format: ADME, subcellular
[3] = Drug metabolism in human liver S9 fraction assessed as oxidative metabolism after 4 hrs by UPLC-UV-PAD method in presence of NADPH; format: ADME, subcellular; conditions: read-out: Drug metabolism
[4] = Drug metabolism in rat liver S9 fraction assessed as oxidative metabolism after 4 hrs by UPLC-UV-PAD method in presence of NADPH; format: ADME, subcellular; conditions: read-out: Drug metabolism
[5] = Drug metabolism in human liver S9 fraction assessed as non-oxidative metabolism after 4 hrs by UPLC-UV-PAD method; format: ADME, subcellular; conditions: read-out: Drug metabolism
[6] = Drug metabolism in rat liver S9 fraction assessed as non-oxidative metabolism after 4 hrs by UPLC-UV-PAD method; format: ADME, subcellular; conditions: read-out: Drug metabolism
[7] = Drug metabolism in dog plasma after 4 hrs by UPLC-UV/PAD method; format: ADME, cell-free, Canis lupus familiaris; conditions: read-out: Drug metabolism
[8] = Drug metabolism in human plasma after 4 hrs by UPLC-UV/PAD method; format: ADME, cell-free; conditions: read-out: Drug metabolism
[9] = Drug metabolism in rat plasma after 4 hrs by UPLC-UV/PAD method; format: ADME, cell-free; conditions: read-out: Drug metabolism
[10] = system: Blood; assay: Metabolic stability in rat blood after 4 hrs by UPLC-UV/PAD method; format: ADME, tissue-based
[11] = system: Blood; assay: Metabolic stability in mouse blood after 4 hrs by UPLC-UV/PAD method; format: ADME, tissue-based
[12] = Solubility of the compound in physiological solution by UV spectrophotometric analysis; format: physicochemical
[13] = Solubility of the compound in phosphate buffer at pH 7.4 by UV spectrophotometric analysis; format: physicochemical
[14] = Solubility of the compound in water by UV spectrophotometric analysis; format: physicochemical

half-life [1]: 2.17 h
half-life [2]: 1.89 h
metabolised at 4 h [3]: 69%
metabolised at 4 h [4]: 65%
metabolised at 4 h [5]: 30%
metabolised at 4 h [6]: 30%
metabolised at 4 h [7]: 25%
metabolised at 4 h [8]: 6%
metabolised at 4 h [9]: 6%
Stability [10]: Stable
Stability [11]: Stable
solubility [12]: 8 mg/mL
solubility [13]: 32 mg/mL
solubility [14]: 33 mg/mL
Compound: CC(CCN1CCCCC1)c1ccc(-c2ccccc2)cc1.Cl (racemic)
